The subject of data set [1] is ZIKV. The experiment in a line: High-content image analysis of ZIKV infection (NS3) in A549 cells. The format is cell-based, Zika virus. Conditions: ZIKV; for IC50: Zika virus, MOI 0.5, A549 cells, 24 h. The procedure:
(§1) Approximately 50% of confluent cells seeded in 96-well plates were infected with viruses in the presence of drugs or DMSO as a solvent control. At 24 h post-infection (hpi), cells were fixed with 4% paraformaldehyde at room temperature (RT) for 20 min, permeated with a 0.5% Triton X-100 buffer for 2 min, and blocked with 3% BSA for 30 min. Nuclei were stained with DAPI (Sigma) at RT for 20 min. Viral NS3 was stained with a mouse anti-NS3 monoclonal antibody (mAb)[47] followed by staining with an Alexa Fluor 488-conjugated goat anti-mouse IgG antibody (ThermoFisher) at RT for 1 h. Nine images from different fields per well were acquired and analyzed using an ImageXpress Micro XLS Widefield High-Content Analysis System (Molecular Devices, Sunnyvale, USA). To quantify viral infection, the fluorescence intensities of viral NS3 or eGFP from the reporter virus were measured using MetaXpress® (Molecular Devices, Sunnyvale, USA) and were calculated with a mock control (infection as 0%) and a DMSO solvent control (infection as 100%).

The test system of data set [2] is DENV-2-eGFP. The data set is described as follows: microbe, parasite or virus in culture. The format is cell-based, dengue virus. Conditions: for SI (CC50/IC50): DENV-2-eGFP; for IC50: Dengue virus, DENV2, A549, 24 h; for effect on DENV replication: DENV-2-eGFP MOI 5, reversed by exogenous uridine 50 µg/ml. The procedure: as §1
The subject of data set [3] is A549 cells. The experiment in a line: LDH release cytotoxicity assay. The format is cell-based, human. To be noted: 24 h; for CC50: A549 cells; for noncytotoxic concentrations: human A549 cells. The procedure: (§2) Cells were treated with compounds at the indicated concentrations for 24 h. The release of lactate dehydrogenase (LDH) was measured using a Cytotoxicity Detection Kit (Roche, Basel, Switzerland) after removing cell debris. Cells treated with 1% Triton X-100 were used to determine the maximal LDH release.

A short description of data set [4]: LDH release cytotoxicity assay. The format is cell-based, human. Conditions: human, A549 cells. The protocol: as §2
(In general: LDH in the medium is a marker of cell lysis.)

For data set [5], the system named is JEV-eGFP. The data set is described as follows: microbe, parasite or virus in culture. The format is cell-based, Japanese encephalitis virus. Conditions: for SI (CC50/IC50): JEV-eGFP; for IC50: Japanese encephalitis virus, A549, 24 h. The protocol:
as §1

For data set [6], the system named is DENV-2. The data set is described as follows: Viral binding assay. The format is cell-based, dengue virus. Conditions: 1 µM, A549 cells, DENV-2 MOI 5, 4 °C 1 h. The protocol: A549 cells and DENV-2 separately pretreated with P12-23 (1 µM), P12-34 (1 µM) or heparin (100 unit/ml) at 37 ℃ for 1 h were mixed to allow for viral adsorption at a multiplicity of infection (MOI) of 5 at 4 °C for 1 h. After washing off unbound viruses, RNA was extracted using an RNeasy® Mini Kit (QIAGEN, Hilden, Germany), and viral titers were quantified by real-time RT-PCR as previously described[48] using DENV-2 primers (5′-[…]-3′ and 5′-[…]-3′) and β-actin primers (5′-[…]-3′ and 5′-[…]-3′). After the RNA was normalized to the internal control in each sample, the relative level of viral RNA was determined using the DMSO solvent control.

For data set [7], the system named is DENV-2. The data set is described as follows: Viral translation assay (NS3 western blot). The format is cell-based, dengue virus. Conditions: 1 µM added at 1 hpi, A549 cells, DENV-2 MOI 20. The protocol:
A549 cells absorbed with DENV-2 (MOI 20) at 4 °C for 1 h were washed to remove unbound viruses. After incubating at 37 °C for 1 h to allow viral entry, cells were treated with P12-23 (1 µM), P12-34 (1 µM) or 2′-c-methyladenosine (20 µM). Cells were harvested at 2, 3, 4, and 6 hpi for western blot analysis as previously described[46] with an anti-NS3 mAb[47] and an anti-actin mAb (NB600-501; Novus Biologicals, Littleton, CO, USA). Protein expression levels were quantified using ImageJ.
On the technique in general: A western blot detects proteins with antibodies after separation by electrophoresis.

The subject of data set [8] is DENV-2. The data set is described as follows: Viral entry assay. The format is cell-based, dengue virus. To be noted: 1 µM, A549 cells, DENV-2 MOI 5. The protocol:
A549 cells pretreated with P12-23 (1 µM), P12-34 (1 µM) or Pitstop®2 (5 µM) at 37 ℃ for 1 h were absorbed with DENV-2 (MOI 5) at 4 °C for 1 h. After removing the unbound viruses, cells were shifted to 37 ℃ for 30 min for viral entry. The cell surface-associated viruses were then removed by treatment with trypsin-EDTA (ThermoFisher) at 37 °C for 10 min. Viral entry indicated by E protein positivity was determined using a BD FACSCalibur Flow Cytometer (BD) after immunofluorescent staining with an anti-E mAb[47].

Data set [9] relates to DENV-2. The experiment in a line: Viral RNA replication assay (RT-qPCR). The format is cell-based, dengue virus. Conditions: 1 µM added at 1 hpi versus 2′CMA 20 µM, A549 cells, DENV-2 MOI 5. The protocol: Viral infection (MOI 5) and drug treatment were performed as described for the virus translation assay. Cells were harvested for real-time RT-PCR analysis after removing the cell-free viruses at 1, 2, 3, 6, 9, 12, 18, and 27 hpi. Viral RNA was quantified and normalized with actin RNA as described for the virus binding assay.

The test system of data set [10] is A549 cells. The data set is described as follows: ER stress and autophagy western blot in A549 cells. The format is cell-based, human. To be noted: 1 µM, 24 h. The protocol: Supplementary figure 2. […] A549 cells with or without DENV-2 (MOI 5) infection were treated with P12-23 (1 μM), tunicamycin (TM) (5 μg/ml), thapsigargin (TG) (0.5 μM), or chemical chaperon 4-Phenylbutyric acid (4-PBA) (10 mM) for 24 h. Cell lysates were harvested for western blot analysis with antibodies against the indicated proteins.

Experimental findings from publication PMC6246607, “Novel AR-12 derivatives, P12-23 and P12-34, inhibit flavivirus replication by blocking host de novo pyrimidine biosynthesis” (Emerging Microbes & Infections, 2018) are described below.

In general, IC50 refers to the concentration needed to halve the response being measured. Lower therefore signals greater potency in that assay. Usually CC50 stands for the concentration that lowers cell viability or growth by half.

SMILES strings stand for the structures. Where “and” joins values, the source holds several entries; their conditions need not be identical. Equal values may be shown once.

For `NCC(=O)Nc1ccc(-n2nc(C(F)(F)F)cc2-c2ccc3c(ccc4ccccc43)c2)cc1` [AR-12], the “SI (CC50/IC50)” value in data set [1] (A549 cells) is 15.8 ± 2; in data set [2] (A549 cells), 33 and 33.2 ± 5.9; in [5] (A549 cells) it was 42.3 ± 4.1. Also, the IC50 in data set [1] is 1370 ± 177 nM; in data set [2], 660 ± 130 nM; in data set [5] it was 510 ± 52.4 nM. For the same compound, the “anti-DENV activity with uridine supplement” value in data set [2] (uridine 50 µg/ml, P12-23 1 µM, P12-34 1 µM, AR-12 5 µM, A549 cells) is on record as “abolished”. In data set [3], this compound returned a CC50 of 21400 ± 200 nM. For the same compound, the noncytotoxic concentrations in data set [3] was no more than 12.5 µM. The CC50 at 24 h in [4] is roughly 20000 nM.

For `O=C(N[C@@H]1CCCc2c1[nH]c1ccc(Cl)cc21)c1ccccn1` [GSK983, reference compound], the “effect on DENV replication” value in data set [2] (A549 cells) is given as “reduced DENV replication in a dose-dependent manner”.

On to `CC(C)(N)C(=O)Nc1ccc(-n2cc(C(F)(F)F)cc2-c2ccc3c(ccc4ccccc43)c2)cc1` [P12-23], for which, in data set [6], the “effect on viral binding” value is recorded as “no suppressive effect”. In addition, the “SI (CC50/IC50)” value in data set [1] (A549 cells) was 158 ± 13.6; in data set [2] (A549 cells), 297 and 296.7 ± 35.1; in data set [5] (A549 cells) it was 385.5 ± 11.8. In addition, the “relative potency versus AR-12 (fold)” value in data set [1] (A549 cells) is reported as ~ 10 fold; in data set [5] (JEV, A549 cells), ~ 10 fold. The figures for the IC50 in data set [1], in [2] and in data set [5] were 130 ± 11.7 nM, 69.7 ± 8.9 nM and 53.2 ± 1.6 nM, respectively. Besides, the “effect on NS3 levels at early stage of infection (viral translation)” value in data set [7] is given as “did not reduce NS3 levels until 4~6 h post-infection”. The “effect on viral entry” value in [8] is listed as “no suppressive effect”. In data set [9], the “suppression of intracellular viral RNA replication” value is “more potent than 2′CMA”. Moreover, the midpoint of cytotoxicity in data set [3], the CC50, lay at 20500 ± 100 nM. Also, the noncytotoxic concentrations in [3] was no more than 12.5 µM. The compound further gave a CC50 at 24 h in [4] of roughly 20000 nM. In addition, in [10], the “induction of ER stress (GRP78, eIF2α phosphorylation) or autophagy (LC3B form II)” value is reported as “did not significantly induce ER stress”.

As for `Cc1c(-c2ccc(-c3ccccc3F)cc2)nc2ccc(F)cc2c1C(=O)O` [brequinar, reference compound], the “effect on DENV replication” value in [2] (A549 cells) is listed as “reduced DENV replication in a dose-dependent manner”.
